Laboratory results published in patent publication US3931217A, “2,3-Dihydro-5-alkoxy-5-phenyl-5H-imidazo[2,1-a]isoindoles” (Hoffmann-La Roche Inc., priority 1974, dated 1976).

What was measured:
mice = test: direct-acting stimulant / psychostimulant effect in animals such as mice; format: in vivo; conditions: similarly tested; result in words
Experimental: As has been indicated hereinabove the novel end products of this invention, i.e., the compounds of the formula I and their pharmaceutically acceptable acid addition salts and the compounds of formula II-d and their pharmaceutically acceptable acid addition salts, are useful as psychostimulants. When administered, for example, orally, to animals such as mice they produce a direct-acting stimulant effect of long duration in single doses in amounts ranging from 0.03 mg/kg to 50 mg/kg. […] Exp. Path. and Pharm., Vol. 140, page 237). The compounds of this invention have psychostimulant effects qualitatively similar in many respects to those of imipramine and amphetamine which are well known for their therapeutic uses and properties.

[1] = acute toxicity (LD50) in mice; conditions: mouse, in vivo
dogs = test: blood pressure in dogs; format: in vivo; conditions: 4 mg/kg i.v.
Experimental: (§1) In addition to their use as psychostimulants, the compounds of formulas I and II-d are also useful as analgesic agents. […] For example, 2-(2-benzoylphenyl)-2-imidazoline in dogs at 4 mg/kg i.v. produced an increase in blood pressure of 10 mm. Hg after 2 minutes followed by gradual increase to 25 mm. Hg.

animals = test: analgesic properties in standard pharmacological tests in animals; format: in vivo; conditions: result in words
Experimental: as §1

LD50 of Example 21 = conditions: in vivo, iv; species not given

COC1(c2ccccc2)c2ccccc2C2=NCCN21 (centres unmarked) [2,3-dihydro-5-methoxy-5-phenyl-5H-imidazo[2,1-a]isoindole]
test result compared with 2-(2-benzoylphenyl)-2-imidazoline (mice): qualitatively similar to 2-(2-benzoylphenyl)-2-imidazoline

O=C(c1ccccc1)c1ccccc1C1=NCCN1 [Example 10, 2-(2-benzoylphenyl)-2-imidazoline]
LD50 ([1]; ip): 77 mg/kg
LD50 ([1]; iv): 37 mg/kg
LD50 ([1]; po): 200 mg/kg
LD50 ([1]; sc): 130 mg/kg
increase in blood pressure (dogs; after 2 minutes): 10 mm. Hg
gradual increase in blood pressure (dogs; following the 2-minute value): 25 mm. Hg
analgesic properties compared with phenylbutazone (animals): can be likened to the analgesic properties of phenylbutazone

O=C(c1ccc(Cl)cc1)c1ccccc1C1=NCCN1 [Example 15, 2-[2'-(4-chlorobenzoyl)phenyl]-2-imidazoline]
test result compared with 2-(2-benzoylphenyl)-2-imidazoline (mice): qualitatively similar to 2-(2-benzoylphenyl)-2-imidazoline

COc1ccc(C(=O)c2ccccc2C2=NCCN2)cc1 [Example 16, 2-[2'-(4-anisoyl)phenyl]-2-imidazoline]
test result compared with 2-(2-benzoylphenyl)-2-imidazoline (mice): qualitatively similar to 2-(2-benzoylphenyl)-2-imidazoline

OC1(c2ccccc2)c2ccccc2C2=NCCCCN21 (centres unmarked) [Example 21, 2,3,4,5-tetrahydro-7-hydroxy-7-phenyl-7H-diazepino[2,1-a]isoindole]
LD50 (LD50 of Example 21): 40 mg/kg
